How the values were obtained:
[1] = target: T1, hTLR7 (Homo sapiens, UniProt Q9NYK1); assay: Human TLR7 Reporter Assay; assay type: cell-based; settings: HEK-Blue hTLR7 cells, 16 hours, normalized to CL097 (6 μM) and DMSO
T1 construct: host or cells: HEK-Blue hTLR7 cells (HEK293-derived, own knowledge)
T1 sequence (Q9NYK1 27-1049): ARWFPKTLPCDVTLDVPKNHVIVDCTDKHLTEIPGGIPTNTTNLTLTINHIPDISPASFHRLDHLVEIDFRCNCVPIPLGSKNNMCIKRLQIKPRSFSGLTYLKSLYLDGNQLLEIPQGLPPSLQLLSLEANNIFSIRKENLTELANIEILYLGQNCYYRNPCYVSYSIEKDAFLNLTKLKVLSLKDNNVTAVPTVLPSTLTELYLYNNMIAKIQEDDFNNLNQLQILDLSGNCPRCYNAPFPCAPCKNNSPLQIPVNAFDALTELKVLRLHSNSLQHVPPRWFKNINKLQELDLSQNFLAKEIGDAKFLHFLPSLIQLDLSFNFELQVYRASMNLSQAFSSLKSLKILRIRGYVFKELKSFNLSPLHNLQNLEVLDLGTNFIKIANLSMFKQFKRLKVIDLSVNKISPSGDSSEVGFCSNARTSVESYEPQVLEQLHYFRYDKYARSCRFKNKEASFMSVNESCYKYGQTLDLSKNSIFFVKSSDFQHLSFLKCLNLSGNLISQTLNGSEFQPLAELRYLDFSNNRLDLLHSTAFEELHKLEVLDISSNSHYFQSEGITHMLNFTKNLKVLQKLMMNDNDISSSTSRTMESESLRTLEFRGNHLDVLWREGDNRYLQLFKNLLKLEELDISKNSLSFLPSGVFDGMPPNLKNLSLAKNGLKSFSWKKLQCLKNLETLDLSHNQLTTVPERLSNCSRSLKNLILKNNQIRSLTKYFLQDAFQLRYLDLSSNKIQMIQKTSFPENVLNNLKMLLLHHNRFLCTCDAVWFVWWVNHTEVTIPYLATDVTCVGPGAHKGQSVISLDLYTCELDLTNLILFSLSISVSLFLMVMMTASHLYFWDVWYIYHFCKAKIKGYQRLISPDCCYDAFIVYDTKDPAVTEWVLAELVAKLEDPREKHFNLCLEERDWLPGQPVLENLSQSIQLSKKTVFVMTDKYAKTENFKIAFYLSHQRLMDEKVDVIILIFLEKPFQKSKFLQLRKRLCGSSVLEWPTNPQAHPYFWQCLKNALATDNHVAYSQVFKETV
Description: (§1) HEK-Blue™ hTLR7 cells (Invivogen, San Diego, Calif.) were maintained at 37° C./5% CO2/90% relative humidity in Dulbecco's Modified Eagle's Medium with 10% fetal bovine serum, 100 units/mL penicillin, 100 μg/mL streptomycin, 100 μg/mL normocin, 10 μg/mL blasticidin, and 100 μg/mL zeocin. HEK-Blue™ hTLR7 cells were maintained at 10-90% confluence and used before passage 20. For this assay, test compounds were dissolved in DMSO, and 10-point serial 3-fold dilution series in DMSO were prepared in Echo Qualified 384-well Polypropylene Microplates (Labcyte, San Jose, Calif.). Assay plates (384-well flat, clear bottom, black polystyrene TC-treated microtiter plates; Corning, Corning, N.Y.) were prepared by dispensing 150 nL of test compounds, high control (CL097; Invivogen, San Diego, Calif.), and low control (DMSO) by ECHO acoustic dispenser (Labcyte, San Jose Calif.) followed by addition of 5 μL of HEK-Blue™ Detection assay media (Invivogen, San Diego, Calif.). HEK-Blue™ hTLR7 cells in HEK-Blue™ Detection assay media (20,000 cells per well in 45 μL of media) were added to the assay plate and incubated for 16 hours at 37° C./5% CO2/90% relative humidity. For detection, assay plates were removed from the incubator, allowed to cool to ambient temperature, centrifuged at 200×g for 1 minutes, and read with an EnSpire Multimode Plate Reader (Perkin Elmer, Waltham, Mass.) for absorbance at 620 nm. Test compound effects were normalized to the window defined by the controls, CL097 (6 μM), and DMSO. Calculated % effects were fit using a 4-parameter algorithm, and EC50 was reported.

[2] = target: T2, hTLR8 (Homo sapiens, UniProt Q9NR97); assay: Human TLR8 Reporter Assay; assay type: cell-based; settings: HEK-Blue hTLR8 cells, 16 hours, normalized to tl8-506 (1 μM) and DMSO
T2 construct: host or cells: HEK-Blue hTLR8 cells (HEK293-derived, own knowledge)
T2 sequence (Q9NR97 27-1041): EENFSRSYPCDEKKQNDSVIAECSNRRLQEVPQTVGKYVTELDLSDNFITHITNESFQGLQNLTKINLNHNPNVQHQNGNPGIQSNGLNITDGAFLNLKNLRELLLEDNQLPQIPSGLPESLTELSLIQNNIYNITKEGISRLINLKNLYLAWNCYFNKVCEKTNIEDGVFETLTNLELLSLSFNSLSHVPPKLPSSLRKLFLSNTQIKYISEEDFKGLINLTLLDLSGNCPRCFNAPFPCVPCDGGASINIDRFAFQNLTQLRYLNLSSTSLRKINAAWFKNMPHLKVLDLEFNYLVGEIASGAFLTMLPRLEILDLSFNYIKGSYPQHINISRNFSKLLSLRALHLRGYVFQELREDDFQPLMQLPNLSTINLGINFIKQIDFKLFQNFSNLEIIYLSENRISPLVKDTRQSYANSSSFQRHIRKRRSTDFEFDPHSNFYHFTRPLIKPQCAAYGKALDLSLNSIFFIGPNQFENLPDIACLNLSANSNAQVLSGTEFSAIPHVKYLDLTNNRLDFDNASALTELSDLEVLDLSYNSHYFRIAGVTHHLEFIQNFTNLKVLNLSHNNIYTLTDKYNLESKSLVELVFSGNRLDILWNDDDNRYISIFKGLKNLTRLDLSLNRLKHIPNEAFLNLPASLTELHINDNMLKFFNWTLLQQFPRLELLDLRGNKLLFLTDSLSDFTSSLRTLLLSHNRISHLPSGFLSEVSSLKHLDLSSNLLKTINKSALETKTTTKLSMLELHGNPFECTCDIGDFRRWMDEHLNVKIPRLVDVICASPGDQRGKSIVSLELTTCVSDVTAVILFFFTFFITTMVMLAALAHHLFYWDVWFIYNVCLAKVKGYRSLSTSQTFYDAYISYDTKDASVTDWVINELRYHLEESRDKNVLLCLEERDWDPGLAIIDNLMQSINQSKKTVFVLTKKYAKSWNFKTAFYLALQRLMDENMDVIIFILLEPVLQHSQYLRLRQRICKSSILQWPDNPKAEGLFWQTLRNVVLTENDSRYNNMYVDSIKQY
Description: as §1, with “hTLR8” for “hTLR7”, “(tl8-506;” for “(CL097;”, “tl8-506 (1” for “CL097 (6”

CCCNc1nc(N)nc2cn(Cc3c(OC)cccc3OC)nc12 [Compound 26]
EC50 [1]: 464 nM | EC50 [2]: 1890 nM

CCCCNc1nc(N)nc2cn(Cc3ccc(C4CCCN4)cc3)nc12 (centres unmarked) [Compound 204]
EC50 [1]: 508 nM | EC50 [2]: 533 nM

CCCCNc1nc(N)nc2cn(Cc3ccc(C4CCCN4)cc3)nc12 (centres unmarked) [Compound 205]
EC50 [1]: 409 nM | EC50 [2]: 519 nM

CCCCNc1nc(N)nc2cn(CCCCCCCCN)nc12 [Compound 13]
EC50 [1]: 3040 nM | EC50 [2]: 26100 nM

CCCCNc1nc(N)nc2cn(Cc3c(OC)ccc(CNC(=O)C4CCC(CN5C(=O)C=CC5=O)CC4)c3OC)nc12 (centres unmarked) [Compound 81]
EC50 [1]: > 29900 nM

C=CCN(C)Cc1nc(Cn2cc3nc(N)nc(NCCCC)c3n2)c(C)o1 [Compound 169]
EC50 [1]: 1850 nM | EC50 [2]: 4060 nM

CCCCNc1nc(N)nc2cn(Cc3cn(C)nc3OC)nc12 [Compound 197]
EC50 [1]: 277 nM | EC50 [2]: 1590 nM

CCCCNc1nc(N)nc2cn(Cc3nnc(C)o3)nc12 [Compound 172]
EC50 [1]: 2790 nM | EC50 [2]: 3990 nM

CCCCNc1nc(N)nc2cn(Cc3ncc(N4CCNCC4)cc3OC)nc12 [Compound 99]
EC50 [1]: 633 nM | EC50 [2]: 1380 nM

CCCC(Nc1nc(N)nc2cn(Cc3c(OC)cccc3OC)nc12)C(F)F (centres unmarked) [Compound 136]
EC50 [1]: 174 nM | EC50 [2]: 1340 nM

CCCCC(CCO)Nc1nc(N)nc2cn(Cc3ccccc3OC)nc12 (centres unmarked) [Compound 16]
EC50 [1]: 86.2 nM | EC50 [2]: > 9980 nM

CCCCNc1nc(N)nc2cn(Cc3ncc(NCCCN)cc3OC)nc12 [Compound 129]
EC50 [1]: 293 nM | EC50 [2]: 1360 nM

CCCCNc1nc(N)nc2cn(CC3CCCCC3)nc12 [Compound 7]
EC50 [1]: 2520 nM | EC50 [2]: > 29900 nM

CCCCNc1nc(N)nc2cn(Cc3ccc(CN)cc3OC)nc12 [Compound 137]
EC50 [1]: 439 nM | EC50 [2]: 692 nM

CCCCNc1nc(N)nc2cn(Cc3ncccc3OC)nc12 [Compound 8]
EC50 [1]: 50.9 nM | EC50 [2]: 546 nM

CCCCNc1nc(N)nc2cn(Cc3c(OC)ccc(CN4CCN(C(=O)C5CCC(CN6C(=O)CC(SC[C@H](N)C(=O)O)C6=O)CC5)CC4)c3OC)nc12 (some centres unmarked) [Compound 90]
EC50 [1]: 2210 nM | EC50 [2]: 15100 nM

CCCCNc1nc(N)nc2cn(Cc3c(OC)cc(CCN)cc3OC)nc12 [Compound 67]
EC50 [1]: 281 nM | EC50 [2]: 392 nM

CCC[C@@H](CO)Nc1nc(N)nc2cn(Cc3ccccc3OC)nc12 [Compound 130]
EC50 [1]: 370 nM | EC50 [2]: 734 nM

CCCCNc1nc(N)nc2cn(Cc3nc(NCCCN)ccc3OC)nc12 [Compound 162]
EC50 [1]: 160 nM | EC50 [2]: 1010 nM

CCCCNc1nc(N)nc2cn(Cc3ccc(CN4CC(CNC)C4)cc3OC)nc12 [Compound 145]
EC50 [1]: 2270 nM | EC50 [2]: 6320 nM

CCCCNc1nc(N)nc2cn(Cc3c(OC)cc(CN(C)CCCN)cc3OC)nc12 [Compound 141]
EC50 [1]: 409 nM | EC50 [2]: 413 nM

CCCCNc1nc(N)nc2cn(Cc3ncc(CN4C(=O)C=CC4=O)cc3OC)nc12 [Compound 110]
EC50 [1]: 553 nM | EC50 [2]: 3680 nM

CCC[C@@H](CO)Nc1nc(N)nc2cn(Cc3ccc(N4CCNCC4)cc3OC)nc12 [Compound 150]
EC50 [1]: 1620 nM | EC50 [2]: 1640 nM

CCCCNc1nc(N)nc2cn(Cc3ccc(C4CCNC4)cc3OC)nc12 (centres unmarked) [Compound 237]
EC50 [1]: 616 nM | EC50 [2]: 7250 nM

CCCCNc1nc(N)nc2cn(Cc3ccc(CN4CCNCC4)cc3OC)nc12 [Compound 61]
EC50 [1]: 344 nM | EC50 [2]: 438 nM

CCCCNc1nc(N)nc2cn(Cc3c(OCC)cccc3OCC)nc12 [Compound 40]
EC50 [1]: 125 nM | EC50 [2]: 813 nM

CCCCCNc1nc(N)nc2cn(Cc3c(OC)cccc3OC)nc12 [Compound 28]
EC50 [1]: 214 nM | EC50 [2]: 1010 nM

CCCCNc1nc(N)nc2cn(Cc3ccc(C(N)CCN)cc3OC)nc12 (centres unmarked) [Compound 229]
EC50 [1]: 2270 nM | EC50 [2]: 11400 nM

CCCCNc1nc(N)nc2cn(Cc3ccc(CCO)cc3OC)nc12 [Compound 128]
EC50 [1]: 95.2 nM | EC50 [2]: 633 nM

CCCCNc1nc(N)nc2cn(Cc3ccccc3OC(C)C)nc12 [Compound 37]
EC50 [1]: 1030 nM | EC50 [2]: > 9980 nM

From patent US20230219962A1, “PYRAZOLO[4,3-d]PYRIMIDINE DERIVATIVES AND METHODS OF USE THEREOF FOR THE TREATMENT OF CELLULAR PROLIFERATIVE DISORDERS” (Merck Sharp & Dohme LLC, priority 2020, published 2023)
